# Measured values taken from US10457685B2, “[1,2,3]triazolo[4,5-D]pyrimidine derivatives with affinity for the type-2 cannabinoid receptor” (Hoffmann-La Roche Inc., priority 2016, dated 2019).
# What was measured:
# [1] = biological target: human CB2 receptor (CNR2) (Homo sapiens (Human), UniProt P34972); assay: Radioligand binding assay ([3H]-CP-55,940), membranes of HEK cells expressing human CNR2; conditions: 2.6 nM [3H]-CP-55,940, HEK cell membranes, 1 h at 30° C.
# Experimental: (§1) Radioligand Binding Assay
# (§2) The affinity of the compounds of the invention for cannabinoid receptors was determined using recommended amounts of membrane preparations (PerkinElmer) of human embryonic kidney (HEK) cells expressing the human CNR1 or CNR2 receptors in conjunction with 1.5 or 2.6 nM [3H]-CP-55,940 (Perkin Elmer) as radioligand, respectively. Binding was performed in binding buffer (50 mM Tris, 5 mM MgCl2, 2.5 mM EDTA, and 0.5% (wt/vol) fatty acid free BSA, pH 7.4 for CB1 receptor and 50 mM Tris, 5 mM MgCl2, 2.5 mM EGTA, and 0.1% (wt/vol) fatty acid free BSA, pH 7.4 for CB2 receptor) in a total volume of 0.2 mL for 1 h at 30° C. shaking. The reaction was terminated by rapid filtration through microfiltration plates coated with 0.5% polyethylenimine (UniFilter GF/B filter plate; Packard). Bound radioactivity was analyzed for Ki using nonlinear regression analysis (Activity Base, ID Business Solution, Limited), with the Kd values for [^3H]CP55,940 determined from saturation experiments.
# [2] = biological target: human CB1 receptor (CNR1) (Homo sapiens (Human), UniProt P21554); assay: Radioligand binding assay ([3H]-CP-55,940), membranes of HEK cells expressing human CNR1; conditions: 1.5 nM [3H]-CP-55,940, HEK cell membranes, 1 h at 30° C.
# Experimental: as §1, §2
# Sequence of human CB1 receptor (CNR1) (P21554 whole entry): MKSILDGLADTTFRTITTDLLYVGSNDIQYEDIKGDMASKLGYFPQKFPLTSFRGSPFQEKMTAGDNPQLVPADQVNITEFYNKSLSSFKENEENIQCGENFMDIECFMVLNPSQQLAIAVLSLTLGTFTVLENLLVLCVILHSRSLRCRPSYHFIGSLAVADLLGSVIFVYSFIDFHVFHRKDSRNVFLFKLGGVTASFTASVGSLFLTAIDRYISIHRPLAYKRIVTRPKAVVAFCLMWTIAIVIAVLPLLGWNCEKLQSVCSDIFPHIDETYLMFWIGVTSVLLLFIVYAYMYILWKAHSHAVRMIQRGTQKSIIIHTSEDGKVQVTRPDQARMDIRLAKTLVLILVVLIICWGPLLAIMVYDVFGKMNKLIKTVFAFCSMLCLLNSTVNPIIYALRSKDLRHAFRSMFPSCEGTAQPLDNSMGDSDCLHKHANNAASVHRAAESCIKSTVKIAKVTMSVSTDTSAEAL
# Sequence of human CB2 receptor (CNR2) (P34972 whole entry): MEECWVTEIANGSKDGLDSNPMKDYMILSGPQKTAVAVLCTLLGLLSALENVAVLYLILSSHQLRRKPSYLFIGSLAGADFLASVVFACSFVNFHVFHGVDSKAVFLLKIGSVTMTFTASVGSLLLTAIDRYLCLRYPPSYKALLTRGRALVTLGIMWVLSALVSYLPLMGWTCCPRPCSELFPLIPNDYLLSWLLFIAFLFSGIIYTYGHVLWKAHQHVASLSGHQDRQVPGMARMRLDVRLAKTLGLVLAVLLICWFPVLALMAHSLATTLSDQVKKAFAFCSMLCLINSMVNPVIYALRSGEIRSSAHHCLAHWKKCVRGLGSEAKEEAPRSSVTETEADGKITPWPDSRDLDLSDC
Compound,Ki [1] [nM],Ki [2] [nM]
"CC(C)(C)c1nc(N2CC[C@H](O)C2)c2nnn(Cc3ccccc3CS(=O)(=O)F)c2n1 [Example 3, [2-({5-tert-Butyl-7-[(3S)-3-hydroxypyrrolidin-1-yl]-3H-[1,2,3]1 triazolo[4,5-d]pyrimidin-3-yl}methyl)phenyl]methanesulfonyl fluoride]",283,> 10000
"Cc1nonc1Cn1nnc2c(N3CCC(N=[N+]=[N-])C3)nc(C(C)(C)C)nc21 (stereo not drawn) [Example 14, 7-(3-Azidopyrrolidin-1-yl)-5-tert-butyl-3-[(4-methyl-1,2,5-oxadiazol-3-yl)methyl]-3H-[1,2,3]triazolo[4,5-d]pyrimidine]",137,> 10000
"CSSC1CCN(c2nc(C(F)(F)c3ccccc3)nc3c2nnn3Cc2ccccc2Cl)C1 (stereo not drawn) [Example 19, 3-[(2-Chlorophenyl)methyl]-5-[difluoro(phenyl)methyl]-7-[3-(methyldisulfanyl)pyrrolidin-1-yl]-3H-[1,2,3]triazolo[4,5-d]pyrimidine]",1370,> 10000
"[N-]=[N+]=NC1CCN(c2nc(C(F)(F)c3ccccc3)nc3c2nnn3Cc2ccccc2Cl)C1 (stereo not drawn) [Example 21, 7-(3-Azidopyrrolidin-1-yl)-3-[(2-chlorophenyl)methyl]-5-[difluoro(phenyl)methyl]-3H-[1,2,3]triazolo[4,5-d]pyrimidine]",729,2450
"CC(C)(C)c1nc(N2CCC(F)(F)C2)c2nnn(Cc3ccccc3S(=O)(=O)F)c2n1 [Example 7, 2-{[5-tert-Butyl-7-(3,3-difluoropyrrolidin-1-yl)-3H-[1,2,3]triazolo[4,5-d]pyrimidin-3-yl]methyl}benzene-1-sulfonyl fluoride]",6,931
"CC(C)(C)c1nc(N2CCC(F)(F)C2)c2nnn(Cc3ccccc3CSSCCO)c2n1 [Example 25, 2-[[2-[[5-tert-Butyl-7-(3,3-difluoropyrrolidin-1-yl)triazolo[4,5-d]pyrimidin-3-yl]methyl]phenyl]methyldisulfanyl]ethanol]",9,211
"C#Cc1cccc(S(=O)(=O)F)c1Cn1nnc2c(N3CCC(F)(F)C3)nc(C(C)(C)C)nc21 [Example 38, 2-[[5-tert-Butyl-7-(3,3-difluoropyrrolidin-1-yl)triazolo[4,5-d]pyrimidin-3-yl]methyl]-3-ethynylbenzenesulfonyl fluoride]",1,311
"CC(C)(C)c1nc(N2CCC(S)C2)c2nnn(Cc3ccccc3Cl)c2n1 (stereo not drawn) [Example 8, 1-{5-tert-Butyl-3-[(2-chlorophenyl)methyl]-3H-[1,2,3]triazolo[4,5-d]pyrimidin-7-yl}pyrrolidine-3-thiol]",85,1470
"CC(C)(C)c1nc(N2CCC(N=[N+]=[N-])C2)c2nnn(Cc3ccccc3Cl)c2n1 (stereo not drawn) [Example 17, 7-(3-Azidopyrrolidin-1-yl)-5-tert-butyl-3-[(2-chlorophenyl)methyl]-3H-[1,2,3]triazolo[4,5-d]pyrimidine]",210,2290
"CC(C)(C)c1nc(N2CCC(F)(F)C2)c2nnn(Cc3ccccc3CCSSCCO)c2n1 [Example 29, 2-[2-[2-[[5-tert-Butyl-7-(3,3-difluoropyrrolidin-1-yl)triazolo[4,5-d]pyrimidin-3-yl]methyl]phenyl]ethyldisulfanyl]ethanol]",6,205
"CC(C)(C)c1nc(N2CCC(F)(F)C2)c2nnn(Cc3ccccc3CCSSc3ccccn3)c2n1 [Example 32, 5-tert-Butyl-7-(3,3-difluoropyrrolidin-1-yl)-3-[[2-[2-(pyridin-2-yldisulfanyl)ethyl]phenyl]methyl]triazolo[4,5-d]pyrimidine]",72,1860
"OCCSSCCc1ccccc1Cn1nnc2c(N3CCC(F)(F)C3)nc(C(F)(F)c3ccccc3)nc21 [Example 28, 2-[2-[2-[[5-[Difluoro(phenyl)methyl]-7-(3,3-difluoropyrrolidin-1-yl)triazolo[4,5-d]pyrimidin-3-yl]methyl]phenyl]ethyldisulfanyl]ethanol]",138,1080
"O=S(=O)(F)c1ccccc1Cn1nnc2c(N3CCC(F)(F)C3)nc(C(F)(F)c3ccccc3)nc21 [Example 26, 2-[[5-[Difluoro(phenyl)methyl]-7-(3,3-difluoropyrrolidin-1-yl)triazolo[4,5-d]pyrimidin-3-yl]methyl]benzenesulfonyl fluoride]",630,> 10000
"CC(C)(C)c1nc(N2CCC(F)(F)C2)c2nnn(Cc3ccccc3CN=C=S)c2n1 [Example 4, 5-tert-Butyl-7-(3,3-difluoropyrrolidin-1-yl)-3-{[2-(isothiocyanatomethyl)phenyl]methyl}-3H-[1,2,3]triazolo[4,5-d]pyrimidine]",88,3830
"CC(C)(C)c1nc(N2CCC(F)(F)C2)c2nnn(Cc3ccccc3CCS(=O)(=O)n3nnc4ccccc43)c2n1 [Example 30, 3-[[2-[2-(Benzotriazol-1-ylsulfonyl)ethyl]phenyl]methyl]-5-tert-butyl-7-(3,3-difluoropyrrolidin-1-yl)triazolo[4,5-d]pyrimidine]",246,> 10000
"FC(F)(c1ccccc1)c1nc(N2CCC(N=C=S)C2)c2nnn(Cc3ccccc3Cl)c2n1 (stereo not drawn) [Example 22, 3-[(2-Chlorophenyl)methyl]-5-[difluoro(phenyl)methyl]-7-(3-isothiocyanatopyrrolidin-1-yl)-3H-[1,2,3]triazolo[4,5-d]pyrimidine]",1240,6440
"CSSC1CCN(c2nc(C(F)(F)c3ccccc3)nc3c2nnn3Cc2nonc2C)C1 (stereo not drawn) [Example 18, 5-[Difluoro(phenyl)methyl]-7-[3-(methyldisulfanyl)pyrrolidin-1-yl]-3-[(4-methyl-1,2,5-oxadiazol-3-yl)methyl]-3H-[1,2,3]triazolo[4,5-d]pyrimidine]",1030,> 10000
"CC(C)(C)c1nc(N2CCC(F)(F)C2)c2nnn(Cc3ccccc3CCS(=O)(=O)F)c2n1 [Example 31, 2-[2-[[5-tert-Butyl-7-(3,3-difluoropyrrolidin-1-yl)triazolo[4,5-d]pyrimidin-3-yl]methyl]phenyl]ethanesulfonyl fluoride]",27,1360
"Cc1nonc1Cn1nnc2c(N3CCC(N=C=S)C3)nc(C(C)(C)C)nc21 (stereo not drawn) [Example 16, 5-tert-Butyl-7-(3-isothiocyanatopyrrolidin-1-yl)-3-[(4-methyl-1,2,5-oxadiazol-3-yl)methyl]-3H-[1,2,3]triazolo[4,5-d]pyrimidine]",426,> 10000
"CC(C)(C)c1nc(N2CC(S)C2)c2nnn(Cc3ccccc3Cl)c2n1 [Example 9, 1-{5-tert-Butyl-3-[(2-chlorophenyl)methyl]-3H-[1,2,3]triazolo[4,5-d]pyrimidin-7-yl}azetidine-3-thiol]",383,> 10000
"CC(C)(C)c1nc(N2CCC(F)(F)C2)c2nnn(Cc3ccccc3CS(=O)(=O)F)c2n1 [Example 2, (2-{[5-tert-Butyl-7-(3,3-difluoropyrrolidin-1-yl)-3H-[1,2,3]triazolo[4,5-d]pyrimidin-3-yl]methyl}phenyl)methanesulfonyl fluoride]",11,1960
